Among the data in patent US9855268B2, “Triazolo[4,5-d]pyrimidine derivatives” (Merck Patent GmbH, priority 2013, dated 2018) are IC50 values, retold here.

The assay has as its target GCN2 (Homo sapiens, UniProt Q9P2K8). In words: GCN2 enzyme assay (TR-FRET Lanthascreen, GFP-eIF2alpha phosphorylation). Format: biochemical. The settings on record: 10 μM ATP, 80 nM GFP-eIF2a, 30 nM GCN2. From the text: GCN2: Assay Principle & Conditions
This assay can quantificate the activity of the serin kinase GCN2 (general control non-derepressible-2).
This kinase is involved in the stress metabolism of cells. It is activated upon starvation (amino acid depletion). Its natural substrate is eIF2a (eukaryotic initiation factor 2 alpha subunit), a translation factor, which gets activated (phosphorylated) by GCN2 in case of an amino acid bottleneck in the cells. This in turn leads to a halt of the protein synthesis. Inhibition of GCN2 results in stopping this mechanism: The cell can not stop protein production upon “starvation” stress.
The assay is run in two steps: the enzymatic reaction and the detection step. In the first step GCN2 is incubated with 10 μM ATP and 80 nM of the GFP-labelled substrate eIF2alpha at room temperature.
The enzymatic reaction is stopped by addition of EDTA. The amount of phosphorylated eIF2alpha is determined by TR-FRET (Lanthascreen): A complex is formed consisting of antibody and GFP labelled phospho-eIF2a, which allows a FRET upon exitation at 340 nm.
Final Concentrations in the Enzymatic Reaction
(In TR-FRET formats the signal depends on donor and acceptor labels being close together.)

Structures can show the parent of a compound that is named as a salt. Bounds are passed on as bounds.

Chain of GCN2 (Q9P2K8 whole entry, species assumed): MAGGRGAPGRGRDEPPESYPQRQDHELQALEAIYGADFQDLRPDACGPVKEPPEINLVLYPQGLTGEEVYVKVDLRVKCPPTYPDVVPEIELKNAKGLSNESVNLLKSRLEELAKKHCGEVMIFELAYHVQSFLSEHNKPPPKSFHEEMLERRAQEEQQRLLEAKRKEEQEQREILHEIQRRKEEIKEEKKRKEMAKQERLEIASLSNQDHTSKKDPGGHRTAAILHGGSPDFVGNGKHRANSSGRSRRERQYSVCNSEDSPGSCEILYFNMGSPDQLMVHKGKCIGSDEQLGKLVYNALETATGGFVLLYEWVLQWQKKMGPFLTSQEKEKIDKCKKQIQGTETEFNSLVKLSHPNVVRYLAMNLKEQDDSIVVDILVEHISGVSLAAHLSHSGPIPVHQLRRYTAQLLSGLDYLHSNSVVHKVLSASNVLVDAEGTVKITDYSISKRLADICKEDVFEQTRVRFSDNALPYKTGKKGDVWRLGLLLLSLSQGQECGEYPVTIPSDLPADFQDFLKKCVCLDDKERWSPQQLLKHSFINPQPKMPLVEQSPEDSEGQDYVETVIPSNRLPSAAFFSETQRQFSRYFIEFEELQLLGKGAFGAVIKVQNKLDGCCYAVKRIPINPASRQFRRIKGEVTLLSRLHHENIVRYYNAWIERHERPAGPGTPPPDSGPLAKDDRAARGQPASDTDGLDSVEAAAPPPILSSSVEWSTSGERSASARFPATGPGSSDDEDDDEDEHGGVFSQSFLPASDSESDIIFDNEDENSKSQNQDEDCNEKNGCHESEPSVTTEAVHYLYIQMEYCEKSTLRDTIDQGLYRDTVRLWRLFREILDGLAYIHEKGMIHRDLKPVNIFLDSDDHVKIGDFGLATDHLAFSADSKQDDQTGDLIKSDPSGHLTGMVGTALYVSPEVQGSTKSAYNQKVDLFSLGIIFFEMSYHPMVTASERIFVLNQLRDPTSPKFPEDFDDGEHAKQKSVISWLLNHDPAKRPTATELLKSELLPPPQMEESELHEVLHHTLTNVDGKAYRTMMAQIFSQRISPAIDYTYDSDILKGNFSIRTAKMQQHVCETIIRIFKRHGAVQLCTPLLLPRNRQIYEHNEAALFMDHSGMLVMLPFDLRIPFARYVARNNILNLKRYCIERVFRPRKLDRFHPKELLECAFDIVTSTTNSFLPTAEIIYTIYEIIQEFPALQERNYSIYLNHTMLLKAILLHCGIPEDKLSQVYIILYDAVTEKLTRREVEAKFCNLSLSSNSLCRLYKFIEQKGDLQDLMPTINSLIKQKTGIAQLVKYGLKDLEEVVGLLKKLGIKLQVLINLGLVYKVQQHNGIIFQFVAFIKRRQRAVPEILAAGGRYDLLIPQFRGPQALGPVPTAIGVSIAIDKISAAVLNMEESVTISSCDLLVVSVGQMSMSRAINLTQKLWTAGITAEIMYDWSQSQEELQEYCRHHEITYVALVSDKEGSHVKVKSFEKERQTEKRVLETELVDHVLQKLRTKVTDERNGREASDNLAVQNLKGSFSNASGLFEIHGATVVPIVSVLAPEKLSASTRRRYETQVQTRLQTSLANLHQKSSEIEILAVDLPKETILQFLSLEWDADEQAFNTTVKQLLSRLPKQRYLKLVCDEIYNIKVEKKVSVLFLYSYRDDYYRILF

Usually IC50 stands for the concentration that inhibits the measured activity by half. A higher IC50 goes with weaker potency. For `N[C@H]1CC[C@H](Nc2ncc3nnn(-c4ccc(OCCN5CCOCC5)cc4)c3n2)CC1` [A95, trans-N-{3-[4-(2-morpholin-4-yl-ethoxy)-phenyl]-3H-[1,2,3]triazolo[4,5-d]pyrimidin-5-yl}-cyclohexane-1,4-diamine], the IC50 is under 1000 nM.

In turn, `COc1ccc(-n2nnc3cnc(N[C@H]4CCOC4)nc32)cc1` [A28, [3-(4-methoxy-phenyl)-3H-[1,2,3]triazolo[4,5-d]pyrimidin-5-yl]-(S)-tetrahydrofuran-3-yl-amine] yielded an IC50 of under 1000 nM.

Compound `Cc1ccc2cc(-n3nnc4cnc(N[C@@H]5CCNC5)nc43)ccc2n1` [A126, [3-(2-methyl-quinolin-6-yl)-3H-[1,2,3]triazolo[4,5-d]pyrimidin-5-yl]-(R)-pyrrolidin-3-yl-amine] gave an IC50 of under 1000 nM.

`NC(=O)CCn1cc(-c2ccc(-n3nnc4cnc(N[C@H]5CC[C@H](O)C5)nc43)cc2)cn1` (relative stereo) [A268, 3-(4-{4-[5-(trans-3-hydroxy-cyclopentylamino)-[1,2,3]triazolo[4,5-d]pyrimidin-3-yl]-phenyl}-pyrazol-1-yl)-propionamide] returned an IC50 of under 1000 nM.

On to `N[C@H]1CC[C@H](Nc2ncc3nnn(-c4ccc(N5CCOCC5)cn4)c3n2)CC1` [A96, trans-N-[3-(5-morpholin-4-yl-pyridin-2-yl)-3H-[1,2,3]triazolo[4,5-d]pyrimidin-5-yl]-cyclohexane-1,4-diamine], for which the IC50 lay in the range of 1000 to 5000 nM.

Regarding `COc1ccc(-n2nnc3cnc(N[C@@H]4CCN(S(C)(=O)=O)C4)nc32)cc1` [A269a, ((R)-1-Methanesulfonyl-pyrrolidin-3-yl)-[3-(4-methoxy-phenyl)-3H-[1,2,3]triazolo[4,5-d]pyrimidin-5-yl]-amine], the IC50 is under 1000 nM.

`NC(=O)[C@H]1CC[C@@H](Nc2ncc3nnn(-c4ccc(I)cc4)c3n2)C1` [A171, (1S,3R)-3-[3-(4-iodo-phenyl)-3H-[1,2,3]triazolo[4,5-d]pyrimidin-5-ylamino]-cyclopentanecarboxylic acid amide] came in with a 50% inhibitory concentration (IC50) of under 1000 nM.

In the case of `CNc1ncc2nnn(-c3ccc(OC)cc3)c2n1` [A14, [3-(4-methoxy-phenyl)-3H-[1,2,3]triazolo[4,5-d]pyrimidin-5-yl]-methyl-amine], the IC50 is 1000 to 5000 nM.

For `N[C@H]1CC[C@H](Nc2ncc3nnn(-c4ccc(I)cc4)c3n2)CC1` [A53, N-[3-(4-iodo-phenyl)-3H-[1,2,3]triazolo[4,5-d]pyrimidin-5-yl]-cyclohexane-1,4-diamine], the IC50 is under 1000 nM.

As for `COc1ccc(-n2nnc3cnc(NC4C5CNCC54)nc32)cc1` (stereo not drawn) [A37, (3-aza-bicyclo[3.1.0]hex-6-yl)-[3-(4-methoxy-phenyl)-3H-[1,2,3]triazolo[4,5-d]pyrimidin-5-yl]-amine hydrochloride], the IC50 is 5000 to 10000 nM.

In the case of `COc1ccc(-n2nnc3cnc(N[C@H]4CC[C@@H](O)CC4)nc32)cc1` [A26, cis-4-[3-(4-methoxy-phenyl)-3H-[1,2,3]triazolo[4,5-d]pyrimidin-5-ylamino]-cyclohexanol], the IC50 is under 1000 nM.

Regarding `CCOc1ccc(-n2nnc3cnc(N[C@@H]4CC[C@@H](O)C4)nc32)cn1` (relative stereo) [A206, (trans)-3-[3-(6-ethoxy-pyridin-3-yl)-3H-[1,2,3]triazolo[4,5-d]pyrimidin-5-ylamino]-cyclopentanol], the IC50 was under 1000 nM.

As to `COc1ccc(-n2nnc3cnc(NC4CCS(=O)(=O)C4)nc32)cc1` (stereo not drawn) [A8, N-(1,1-dioxothiolan-3-yl)-3-(4-methoxyphenyl)triazolo[4,5-d]pyrimidin-5-amine], the IC50 was under 1000 nM.

`COc1ccc(-n2nnc3cnc(NC4CCNC(=O)C4)nc32)cc1` (stereo not drawn) [A87, 4-[3-(4-methoxy-phenyl)-3H-[1,2,3]triazolo[4,5-d]pyrimidin-5-ylamino]-piperidin-2-one]: the IC50 fell in the range of 1000 to 5000 nM.

Compound `COc1ccc(-n2nnc3cnc(N[C@@H]4CC[C@H](C(=O)O)C4)nc32)cc1` [A79, (1S,3R)-3-[3-(4-methoxy-phenyl)-3H-[1,2,3]triazolo[4,5-d]pyrimidin-5-ylamino]-cyclopentanecarboxylic acid] had an IC50 of under 1000 nM.

`COc1ccc(-n2nnc3cnc(NC4CC(C)(C)NC(C)(C)C4)nc32)cc1` [A17, [3-(4-methoxy-phenyl)-3H-[1,2,3]triazolo[4,5-d]pyrimidin-5-yl]-(2,2,6,6-tetramethyl-piperidin-4-yl)-amine] registered an IC50 of 5000 to 10000 nM.

`COc1ccc(-n2nnc3cnc(NC4CCCC4)nc32)cc1` [A12, cyclopentyl-[3-(4-methoxy-phenyl)-3H-[1,2,3]triazolo[4,5-d]pyrimidin-5-yl]-amine] gave an IC50 of under 1000 nM.

As for `COc1ccc(-n2nnc3cnc(NC4CC(=O)N(C)C4)nc32)cc1` (stereo not drawn) [A20, 4-[3-(4-methoxy-phenyl)-3H-[1,2,3]triazolo[4,5-d]pyrimidin-5-ylamino]-1-methyl-pyrrolidin-2-one], the IC50 was 1000 to 5000 nM.

`CCOc1ccc(-n2nnc3cnc(N[C@H]4CC[C@H](n5ncccc5=O)C4)nc32)cc1` (relative stereo) [A287, 2-{(trans)-3-[3-(4-ethoxy-phenyl)-3H-[1,2,3]triazolo[4,5-d]-pyrimidin-5-ylamino]-cyclopentyl}-2H-pyridazin-3-one] had an IC50 of under 1000 nM.

Regarding `COc1ccc(-n2nnc3cnc(N[C@@H]4CC[C@H](C#N)C4)nc32)cc1` (relative stereo) [A275, cis-3-[3-(4-Methoxy-phenyl)-3H-[1,2,3]triazolo[4,5-d]pyrimidin-5-ylamino]-cyclopentanecarbonitrile], the IC50 is under 1000 nM.

As to `COc1ccc(-n2nnc3cnc(NC4CCN(c5ccncc5)CC4)nc32)cc1` [A82, [3-(4-methoxy-phenyl)-3H-[1,2,3]triazolo[4,5-d]pyrimidin-5-yl]-(3,4,5,6-tetrahydro-2H-[1,4′]bipyridinyl-4-yl)-amine], the IC50 is under 1000 nM.

`COCCn1cc(-c2ccc(-n3nnc4cnc(N[C@H]5CC[C@H](O)C5)nc43)cn2)cn1` (relative stereo) [A234, (trans)-3-(3-{6-[1-(2-methoxy-ethyl)-1H-pyrazol-4-yl]-pyridin-3-yl}-3H-[1,2,3]triazolo[4,5-d]pyrimidin-5-ylamino)-cyclopentanol] came in with an IC50 of under 1000 nM.

On to `COc1ccc(-n2nnc3cnc(N[C@@H]4CCC[C@@H](O)C4)nc32)cc1` [A201, (1R,3R)-3-[3-(4-methoxy-phenyl)-3H-[1,2,3]triazolo[4,5-d]pyrimidin-5-ylamino]-cyclohexanol], for which the IC50 was under 1000 nM.

As for `COc1ccc(-n2nnc3cnc(NC4CCN(CCN5CCCC5)CC4)nc32)cc1` [A86, [3-(4-methoxy-phenyl)-3H-[1,2,3]triazolo[4,5-d]pyrimidin-5-yl]-[1-(2-pyrrolidin-1-yl-ethyl)-piperidin-4-yl]-amine], the IC50 was under 1000 nM.

The compound `COc1ccc(-n2nnc3cnc(NC(C)(C)C)nc32)cc1` [A7, tert-butyl-[3-(4-methoxy-phenyl)-3H-[1,2,3]triazolo[4,5-d]pyrimidin-5-yl]-amine] registered an IC50 of under 1000 nM.

`COc1ccc(-n2nnc3cnc(N[C@@H]4CCN(C(=O)CN(C)C)C4)nc32)cc1` [A83, 2-dimethylamino-1-{(R)-3-[3-(4-methoxy-phenyl)-3H-[1,2,3]triazolo[4,5-d]-pyrimidin-5-ylamino]-pyrrolidin-1-yl}-ethanone formate] showed an IC50 of under 1000 nM.

`COc1ccc(-n2nnc3cnc(N[C@@H]4CCNC4)nc32)cc1` [A69, [3-(4-methoxy-phenyl)-3H-[1,2,3]triazolo[4,5-d]pyrimidin-5-yl]-(R)-pyrrolidin-3-yl-amine hydrochloride] registered an IC50 of 1000 to 5000 nM.

As for `CCOc1ccc(-n2nnc3cnc(N[C@@H]4CC[C@H](C(N)=O)C4)nc32)cc1` [A149, (1S,3R)-3-[3-(4-ethoxy-phenyl)-3H-[1,2,3]triazolo[4,5-d]pyrimidin-5-ylamino]-cyclopentanecarboxylic acid amide], the IC50 is under 1000 nM.

The compound `COc1ccc(-n2nnc3cnc(N[C@H]4CCN(C(=O)CCN(C)C)C4)nc32)cc1` [A92, 3-dimethylamino-1-{(S)-3-[3-(4-methoxy-phenyl)-3H-[1,2,3]triazolo[4,5-d]-pyrimidin-5-ylamino]-pyrrolidin-1-yl}-propan-1-one formate] showed an IC50 of 1000 to 5000 nM.

As to `COc1ccc(-n2nnc3cnc(N[C@H]4C[C@H](O)C4)nc32)cc1` [A24, trans-3-[3-(4-methoxy-phenyl)-3H-[1,2,3]triazolo[4,5-d]pyrimidin-5-ylamino]-cyclobutanol], the IC50 was under 1000 nM.

The compound `COc1ccc(-n2nnc3cnc(N[C@@H]4CC[C@@H](O)C4)nc32)cc1` (racemic) [A10, trans-3-[3-(4-methoxy-phenyl)-3H-[1,2,3]triazolo[4,5-d]pyrimidin-5-ylamino]-cyclopentanol] showed an IC50 of under 1000 nM.

Regarding `COc1ccc(-n2nnc3cnc(N[C@H]4CC[C@H](CNC(=O)OC(C)(C)C)CC4)nc32)cc1` [A33, {4-[3-(4-methoxy-phenyl)-3H-[1,2,3]triazolo[4,5-d]pyrimidin-5-ylamino]-cyclohexylmethyl}-carbamic acid tert-butyl ester], the IC50 lay within 1000 to 5000 nM.

Turning to `COc1ccc(-n2nnc3cnc(NC4CC(C)(C)N(C)C(C)(C)C4)nc32)cc1` [A15, [3-(4-methoxy-phenyl)-3H-[1,2,3]triazolo[4,5-d]pyrimidin-5-yl]-(1,2,2,6,6-pentamethyl-piperidin-4-yl)-amine], the IC50 fell in the range of 5000 to 10000 nM.
